Results as given in ChEMBL document CHEMBL1125407, “Noncataleptogenic, centrally acting dopamine D-2 and serotonin 5-HT2 antagonists within a series of 3-substituted 1-(4-fluorophenyl)-1H-indoles” (J Med Chem, 1992).

What was measured:
[1] = molecular target: D(2) dopamine receptor (Mus musculus) (UniProt P61168); test: (§1) Compound was tested in vivo for methyl phenidate-induced gnawing behavior antagonistic activity against dopamine D-2 receptor in mice; format: functional, organism-based
[2] = molecular target: T1, Serotonin 2 (5-HT2) receptor (Rattus norvegicus) (UniProt P30994+P08909+P14842); test: Compound was tested for the inhibition of quipazine binding at 5-HT2 receptor; format: protein assay
T1 sequence (P08909 whole entry, looked up): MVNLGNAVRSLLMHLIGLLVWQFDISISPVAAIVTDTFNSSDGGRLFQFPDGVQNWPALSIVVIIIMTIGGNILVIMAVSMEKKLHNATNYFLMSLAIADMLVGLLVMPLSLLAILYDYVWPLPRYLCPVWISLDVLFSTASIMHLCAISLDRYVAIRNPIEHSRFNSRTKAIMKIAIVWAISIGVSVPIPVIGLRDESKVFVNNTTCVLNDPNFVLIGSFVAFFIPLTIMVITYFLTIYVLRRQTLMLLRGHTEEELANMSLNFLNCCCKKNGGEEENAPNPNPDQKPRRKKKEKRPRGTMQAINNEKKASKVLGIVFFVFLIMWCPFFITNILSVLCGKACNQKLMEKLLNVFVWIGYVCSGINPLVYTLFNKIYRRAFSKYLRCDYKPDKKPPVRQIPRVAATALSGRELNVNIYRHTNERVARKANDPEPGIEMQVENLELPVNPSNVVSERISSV
T1 sequence (P14842 whole entry, looked up): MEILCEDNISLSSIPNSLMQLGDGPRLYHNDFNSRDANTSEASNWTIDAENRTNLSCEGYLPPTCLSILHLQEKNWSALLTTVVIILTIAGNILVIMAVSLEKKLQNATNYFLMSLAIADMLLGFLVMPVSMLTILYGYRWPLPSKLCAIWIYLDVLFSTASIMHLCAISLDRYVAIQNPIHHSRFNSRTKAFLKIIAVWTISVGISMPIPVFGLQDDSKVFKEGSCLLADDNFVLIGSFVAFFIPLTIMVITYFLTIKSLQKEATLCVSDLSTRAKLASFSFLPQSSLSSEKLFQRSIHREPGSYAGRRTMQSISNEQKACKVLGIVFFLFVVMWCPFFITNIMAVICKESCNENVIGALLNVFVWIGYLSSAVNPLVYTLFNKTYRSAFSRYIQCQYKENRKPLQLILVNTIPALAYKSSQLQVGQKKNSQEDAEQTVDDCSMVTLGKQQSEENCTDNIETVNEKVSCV
T1 sequence (P30994 whole entry, looked up): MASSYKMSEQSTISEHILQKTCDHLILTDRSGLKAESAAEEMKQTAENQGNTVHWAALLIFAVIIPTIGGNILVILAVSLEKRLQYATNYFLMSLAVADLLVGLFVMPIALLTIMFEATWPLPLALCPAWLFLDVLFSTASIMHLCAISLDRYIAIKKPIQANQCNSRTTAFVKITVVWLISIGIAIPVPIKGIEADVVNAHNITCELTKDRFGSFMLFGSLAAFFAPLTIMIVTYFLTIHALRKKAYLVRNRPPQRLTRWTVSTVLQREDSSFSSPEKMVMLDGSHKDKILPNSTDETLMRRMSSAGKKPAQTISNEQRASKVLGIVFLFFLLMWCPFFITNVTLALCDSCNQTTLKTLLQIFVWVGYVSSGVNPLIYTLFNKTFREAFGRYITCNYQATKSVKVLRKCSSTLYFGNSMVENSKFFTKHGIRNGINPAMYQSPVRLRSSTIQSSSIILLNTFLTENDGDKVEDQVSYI

D(2) dopamine receptor = D(2) dopamine receptor (Rattus norvegicus, UniProt P61169); test: Tested for the inhibition of [3H]spiperone binding to dopamine D2 receptor
D(2) dopamine receptor, sequence (P61169 whole entry): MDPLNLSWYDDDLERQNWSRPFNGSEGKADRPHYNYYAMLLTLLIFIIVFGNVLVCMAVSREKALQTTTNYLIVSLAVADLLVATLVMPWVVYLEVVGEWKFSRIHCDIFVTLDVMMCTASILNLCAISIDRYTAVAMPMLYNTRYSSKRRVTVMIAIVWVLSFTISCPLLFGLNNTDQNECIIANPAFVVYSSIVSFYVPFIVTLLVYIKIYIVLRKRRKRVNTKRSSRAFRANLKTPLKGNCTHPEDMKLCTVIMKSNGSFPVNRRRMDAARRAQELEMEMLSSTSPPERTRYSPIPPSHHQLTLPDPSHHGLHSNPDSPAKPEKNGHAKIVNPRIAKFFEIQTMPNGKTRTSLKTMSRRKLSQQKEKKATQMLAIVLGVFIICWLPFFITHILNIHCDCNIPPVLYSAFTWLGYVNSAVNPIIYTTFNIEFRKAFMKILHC

[3] = molecular target: T2, Serotonin 2 (5-HT2) receptor (Rattus norvegicus, UniProt P30994+P08909+P14842); test: Inhibition of [3H]ketanserin binding to rat 5-hydroxytryptamine 2 receptors.; format: protein assay
Rattus norvegicus [4] = organism: Rattus norvegicus; test: Inhibition of quipazine induced head twitches in rats; format: functional
[5] = molecular target: D(2) dopamine receptor (Rattus norvegicus) (UniProt P61169); test: Tested in vivo for induction of catalepsy against D2 receptor in rats; format: functional, organism-based
D(2) dopamine receptor (Rattus norvegicus), sequence (P61169 whole entry): as above

[6] = molecular target: D(2) dopamine receptor (Mus musculus) (UniProt P61168); test: Tested in vivo for methyl phenidate-induced gnawing behavior antagonistic activity against dopamine D2 receptor in mice; format: functional, organism-based
[7] = molecular target: T2, Serotonin 2 (5-HT2) receptor; test: Inhibition of [3H]ketanserin binding to […] 5-hydroxytryptamine 2 receptor; format: protein assay
Rattus norvegicus [8] = test: Compound was tested for the inhibition of quipazine-induced head twitches 24 hours after subcutaneous administration; format: functional; details: sc
[9] = molecular target: T1, Serotonin 2 (5-HT2) receptor (Rattus norvegicus); test: Compound was tested for the inhibition of quipazine binding at 5-hydroxytryptamine 2 receptor; format: protein assay
[10] = molecular target: D(2) dopamine receptor (Rattus norvegicus) (UniProt P61169); test: Compound was tested in vivo for induction of catalepsy against D-2 receptor in rats; format: organism-based
[11] = molecular target: D(2) dopamine receptor (Rattus norvegicus) (UniProt P61169); test: as §1; format: functional, organism-based

D(2) dopamine receptor (Mus musculus), sequence (P61168 whole entry): as the sequence (P61169 whole entry) above, with A29P counted along it

Structure (SMILES) | IC50 (D(2) dopamine receptor) [nM] | IC50 [3] [nM] | ED50 (Rattus norvegicus [4]) [µmol/kg] | ED50 [5] [µmol/kg] | ED50 [6] [µmol/kg] | other results
O=C1N(CCN2CCC(c3cn(-c4ccc(F)cc4)c4ccc(Cl)cc34)CC2)CCN1C1CCCC1 |  |  |  |  |  | ED50 [1]: > 67 µmol/kg; ED50 [2]: > 2.1 µmol/kg
O=C1N(CCN2CCC(c3cn(-c4ccc(F)cc4)c4ccc(Cl)cc34)CC2)CCN1c1ccccc1 | 92 | 4.4 | > 0.15 |  |  | ED50 [1]: > 77 µmol/kg
OCCN1CCC(c2cn(-c3ccc(F)cc3)c3ccc(Cl)cc23)CC1 | 4.5 | 2.7 | 0.034 | 3.8 | 1.5 | 
Cc1ccc2c(c1)c(C1CCN(CCN3CCNC3=O)CC1)cn2-c1ccc(F)cc1 | 3.7 | 0.3 | 0.0083 | > 91 | 98 | 
CN1CC=C(c2cn(-c3ccc(F)cc3)c3ccc(Cl)cc23)CC1 | 1.1 |  | 0.058 | 0.085 | 0.085 | IC50 [7]: 0.53 nM; ED50 (Rattus norvegicus [8]): > 0.19 µmol/kg
CN1CC=C(c2cn(-c3ccc(F)cc3)c3ccc([N+](=O)[O-])cc23)CC1 | 0.76 |  | 0.0091 | 0.025 | 0.022 | IC50 [7]: 1.9 nM
COc1ccc2c(c1)c(C1CCN(CCN3CCNC3=O)CC1)cn2-c1ccc(F)cc1 | 24 | 1 | 0.77 | > 46 | > 76 | 
CN1CCN(c2cn(-c3ccc(F)cc3)c3ccc(Cl)cc23)CC1 | 1 |  | 0.041 | 0.23 | 0.12 | IC50 [7]: 0.3 nM
O=C1NCCN1CCN1CC=C(c2cn(-c3ccc(F)cc3)c3ccc(C(F)(F)F)cc23)CC1 |  |  | > 0.66 | 0.49 | 0.37 | ED50 [9]: 0.14 µmol/kg
O=C1NCCN1CCN1CCC(c2cn(-c3ccc(F)cc3)c3ccccc23)CC1 | 18 | 0.082 | 0.036 | > 98 | > 98 | ED50 (Rattus norvegicus [8]): 0.082 µmol/kg
N#Cc1ccc2c(c1)c(C1CCN(CCN3CCNC3=O)CC1)cn2-c1ccc(F)cc1 | 2.2 | 1.3 |  |  | 34 | 
O=C1NCCN1CCN1CCC(c2cn(-c3ccc(F)cc3)c3ccc(Cl)cc23)CC1 [SERTINDOLE] |  |  | 0.052 | > 91 | > 180 | ED50 (Rattus norvegicus [8]): 0.03 µmol/kg
O=C1NCCN1CCCCCCN1CCC(c2cn(-c3ccc(F)cc3)c3ccc(Cl)cc23)CC1 | 2.2 |  | > 2.2 | 20 | 2.7 | IC50 [7]: 2.5 nM
CC(C)N1CCN(CCN2CCC(c3cn(-c4ccc(F)cc4)c4ccc(Cl)cc34)CC2)C1=O | 12 | 2.1 | 0.046 | > 69 | > 69 | 
O=C1NCCN1CCN1CCC(c2cn(-c3ccc(F)cc3)c3ccc(Cl)cc23)(c2cn(-c3ccc(F)cc3)c3ccc(Cl)cc23)CC1 |  |  |  |  |  | IC50 [7]: 120 nM
Fc1ccc(-n2cc(C3=CCNCC3)c3cc(C(F)(F)F)ccc32)cc1 |  |  | > 0.86 | > 14 | 2.1 | 
CS(=O)(=O)c1ccc2c(c1)c(C1CCN(CCN3CCNC3=O)CC1)cn2-c1ccc(F)cc1 | 5.8 | 8 | 54 | > 17 | > 67 | 
OCCN1CCN([C@@H]2C[C@@H](c3ccc(F)cc3)c3ccc(C(F)(F)F)cc32)CC1 (racemic) [TEFLUDAZINE] |  | 2.8 | 0.029 | 0.12 | 0.2 | 

Structure (SMILES) | IC50 (D(2) dopamine receptor) [nM] | IC50 [3] [nM] | ED50 (Rattus norvegicus [4]) [µmol/kg] | ED50 [5] [µmol/kg] | ED50 [6] [µmol/kg] | other results
O=C1NCCN1CCN1CCC(c2cn(-c3ccc(F)cc3)c3ccc(F)cc23)CC1 | 4.7 | 0.48 | 0.052 | > 78 | > 78 | ED50 (Rattus norvegicus [8]): 0.0097 µmol/kg
OCCN1CCN(c2cn(-c3ccc(F)cc3)c3ccc(C(F)(F)F)cc23)CC1 |  |  | 0.023 | 0.06 | 0.079 | IC50 [7]: 1.4 nM
CN1CC=C(c2cn(-c3ccc(F)cc3)c3ccccc23)CC1 | 1.6 |  | 0.15 | 3.6 | 1.3 | 
Fc1ccc(-n2cc(C3CCNCC3)c3cc(Cl)ccc32)cc1 | 23 | 3.8 | 1.5 |  |  | ED50 [1]: > 90 µmol/kg
CN1CC=C(c2cn(-c3ccc(F)cc3)c3ccc(F)cc23)CC1 |  |  | 0.15 | 0.64 | 0.44 | IC50 [7]: 3 nM
O=C1NCCN1CCCCCN1CCC(c2cn(-c3ccc(F)cc3)c3ccc(Cl)cc23)CC1 | 4.2 | 1.5 | 1.5 |  | 14 | 
CN1CCN(C2=Nc3cc(Cl)ccc3Nc3ccccc32)CC1 [CLOZAPINE] |  |  |  |  |  | ED50 (Rattus norvegicus [8]): > 31 µmol/kg
O=C1NCCN1CCN1CC=C(c2cn(-c3ccc(F)cc3)c3ccc(Cl)cc23)CC1 | 2.3 |  | 0.22 | 2.2 | 2 | ED50 (Rattus norvegicus [8]): 1.2 µmol/kg
O=C1NCCN1CCN1CCC(c2cn(-c3ccc(F)cc3)c3ccc(C(F)(F)F)cc23)CC1 | 1.9 | 1 | 0.11 | 45 | 22 | 
O=C1NCCN1CCCCN1CCC(c2cn(-c3ccc(F)cc3)c3ccc(Cl)cc23)CC1 | 78 | 59 | > 2.2 |  | > 72 | 
O=C1NCCN1CCN1CCN(c2cn(-c3ccc(F)cc3)c3ccc(Cl)cc23)CC1 | 21 |  | 0.015 | 4.5 | 7.8 | IC50 [7]: 4.4 nM
O=C1NCCN1CCN1CCC(c2c[nH]c3ccc(Cl)cc23)CC1 | 810 | 25 | > 14 |  |  | ED50 [10]: 47 µmol/kg
Cc1nc2n(c(=O)c1CCN1CCC(c3noc4cc(F)ccc34)CC1)CCCC2 [RISPERIDONE] |  |  |  |  |  | ED50 (Rattus norvegicus [8]): > 3 µmol/kg
O=C1NCCN1CCCN1CCC(c2cn(-c3ccc(F)cc3)c3ccc(Cl)cc23)CC1 | 3.4 | 1 | 1.8 | 11 | 57 | 
Fc1ccc(-n2cc(C3=CCNCC3)c3cc(Cl)ccc32)cc1 |  |  | 1.5 | > 61 |  | ED50 [11]: 17 µmol/kg
O=C1NCCN1CCN1CCC(c2cn(-c3ccc(F)cc3)c3ccc(Br)cc23)CC1 | 3.8 | 1.3 | 0.032 | > 41 | > 82 | 
CN1CCN(CCN2CCC(c3cn(-c4ccc(F)cc4)c4ccc(Cl)cc34)CC2)C1=O | 6.5 | 0.24 | 0.021 | 31 | 2.6 | 
N#Cc1ccc2c(c1)c(C1=CCN(CCN3CCNC3=O)CC1)cn2-c1ccc(F)cc1 | 2.1 | 3.2 |  |  |  | ED50 [10]: 0.37 µmol/kg
